Results published in patent US9056835B2, “LPA2 receptor-specific benzoic acid derivatives” (University of Tennessee Research Foundation, priority 2012, dated 2015).

Tests used:
[1] = test system: C57BL/6 mice; experiment: Radiation-induced mortality, 15.68 Gy PBI-BM5; assay type: in vivo, mouse; details: 15.68 Gy PBI-BM5, single 1 mg/kg s.c. 24 h after irradiation
Experimental: 10-week old female C57BL/6 mice were exposed to a 15.68 Gy (˜LD60/8-10) dose of γ-irradiation from a ^137Cs Source. Twenty four hours after irradiation mice were treated with a single 200 μL subcutaneous injection of 1 mg/kg of the test compounds 5b, 7a, and 7b dissolved in 0.8% DMSO, 1% ethanol, 2% propanediol in PBS buffer. The animals were observed daily and provided with food and water ad libitum. Form day four onward the mice also were provided with a gel food diet. The study endpoint was mortality by day 20.

[2] = target: T1, LPA2 (Homo sapiens, UniProt Q9HBW0); experiment: LPA receptor-mediated Ca2+ mobilization assay, LPA2 (RH7777 cells stably expressing LPA2); assay type: cell-based; set-up: expressed in transfected cells; details: Ca2+ transients, RH7777 cells stably expressing LPA2; for EC50: read-out: EC50 (μM) (RH7777)
Experimental: Similarity searches were performed separately using each fingerprint to quantitate similarity. Hits meeting the 80% similarity threshold from each search were ranked based on the Tanimoto coefficient measure of similarity to a target molecule NSC12404, and the top 75 unique hits from each fingerprint search were selected for further analysis. […] This selected a diverse subset of 27 compounds for biological evaluation by choosing the middle compounds in each cluster. These 27 compounds were tested in Ca^2+ mobilization assays at a concentration of 10 μM using stable cell lines individually expressing LPA2 and also in vector-transfected control cells. Hits activating LPA2 were further tested using cells expressing the other established and putative LPA GPCRs. […] They arbitrarily selected GRI977143 for further characterization in cell-based assays.
The newly-synthesized compounds were tested for their ability to induce Ca^2+ transients in RH7777 cells stably expressing the LPA2 receptor.
The cells were loaded with Fura-2-acetoxymethyl esther (Fura-2/AM) in Krebs buffer containing 0.01% pluronic acid for 30 min and rinsed with Krebs buffer before measuring Ca^2+ mobilization. The ratio of peak emissions at 510 nm after 2 min of ligand addition was determined for excitation wavelengths of 340 nm/380 nm. All samples were run in quadruplicate. […] The half maximally effective concentration (EC50), and inhibitory constant (Ki) values were calculated by fitting a sigmoid function to dose-response data points using KaleidaGraph software (version 4.1, Synergy Software; […]).
Mouse embryonic fibroblast (MEF) cells were isolated from E13.5 LPA1&2 double knockout (DKO) embryos. MEFs were transduced with empty vector or LPA2-containing lentiviruses and selected with 1.5 μg/ml puromycin. Cells were maintained in Dulbecco's modified Eagle medium (DMEM) supplemented with 10% (V/V) fetal bovine serum (FBS), 2 mM L-glutamine, 100 U/mL penicillin, and 100 μg/mL streptomycin. Serum-free medium contained 0.1% (W/V) BSA in DMEM. The rat intestinal epithelial cell line 6 (IEC-6) was obtained from the American Type Culture Collection (Rockville, Md.) at passage 13; passages 16-21 were used in all experiments. IEC-6 cells were maintained in a humidified 37° C. incubator in an atmosphere of 90% air and 10% CO2. Growth medium consisted of DMEM supplemented with 5% heat inactivated FBS, 10 μg/mL insulin, and 50 μg/mL gentamycin. The composition of the serum-starvation medium was the same as that of the full growth medium except that it contained no FBS. The McArdle rat hepatoma cell line (RH7777) stably expressing LPA2 receptors was a gift from Dr. Fumikazu Okajima (Gunma University, Maebashi, Japan). RH7777 cells stably expressing LPA1 or LPA3 receptors were generated in-house and had been characterized earlier. Wild type and LPA receptor (LPAR) stably transfected RH7777 cells were grown in DMEM supplemented with 10% FBS and 2 mM L-glutamine in the presence of 250 μg/ml G418. Chinese hamster ovary (CHO) cells stably expressing either vector or LPA4 receptor were a kind gift from Dr. Takao Shimizu (Tokyo University; Tokyo, Japan). Cells were cultured in Ham's F12 medium containing 10% FBS, 2 mM L-glutamine, and 350 μg/ml G418. Rat neuroblastoma cells (B103) were transduced with the lentivirus harboring wild type of FLAG-LPA5 and selected with puromycin to establish the stable cell lines. The stable cells were maintained in DMEM supplemented with 10% FBS and 0.4 μg/ml puromycin. GPR87- and P2Y10-expressing CHO cells and vector-transfected control cells were a gift from Dr. Norihisha Fujita (Ritsumeikan University; Shiga, Japan). The highly invasive MM1 rat hepatoma cells (gift from Dr. Michiko Mukai, Osaka University, Japan) were grown in suspension in DMEM supplemented with 10% (V/V) FBS, 2 mM L-glutamine, 100 U/mL penicillin, and 100 μg/mL streptomycin.

[3] = test system: LPA2 DKO MEF cells; experiment: Adriamycin-induced DNA fragmentation in LPA2 DKO MEF and EV DKO MEF cells; assay type: cell-based, mouse
Experimental: (§1) Mouse embryonic fibroblast (MEF) cells used in this study isolated from LPA1/2 double knock out (LPA2-DKO) mice {Lin, 2007 #132}. These MEF express LPA4/5/6 receptors endogenously at lower levels but completely lack LPA1/2/3 receptor subtypes. The human LPA2 receptor was reintroduced into these MEF cells by lentiviral transduction, which are designated LPA2 DKO MEF {Lin, 2007 #132}. Empty vector-transduced MEF cells, designates as EV DKO MEF, were used as a control. Cells were cultured in a DMEM supplemented with 10% v/v fetal bovine serum (FBS), 2 mM L-glutamine, 100 U/ml penicillin, and 100 μg/mL streptomycin. During serum starvation, the growth medium was replaced with DMEM containing 0.1% (w/v) BSA.
(§2) The cells were plated in 48 well plates (2×10^4 cells/well) and cultured overnight in full growth medium. Next morning the growth medium was replaced by serum-free starvation medium and cells were pretreated for 1 hour with LPA (1 or 3 μM), compound 5b or 7b (1, 3 or 10 μM). Apoptosis was elicited by 1.7 μM Adriamycin in vector and LPA2 transduced MEF cells. Caspase 3, 7, 8, 9 activity and DNA fragmentation were measured to assess apoptosis 5 h after Adriamycin exposure.
DNA fragmentation was quantified by using the Cell Death Detection ELISA assay kit (Roche Diagnostics, Penzberg, Germany). 20 μl cell lysate was incubated with the anti-histone-biotin anti-DNA-peroxidase-conjugated antibody in a 96-well streptavidin-coated plate with shaking at RT for 2 h. After washing the wells three-times with the incubation buffer, 100 μl/well 2,2′-azino-di(3-ethylbenzthiazolin-sulfonate) substrate was added and the absorbance was measured at 405 nm. Protein concentration was measured using BCA Protein Assay Kit (Thermo Fisher Scientific Inc., Rockford, Ill.). DNA fragmentation was expressed as absorbance units/mg protein. LPA was used as a positive control in all experiments.

[4] = test system: LPA2 DKO MEF cells; experiment: Adriamycin-induced caspase 3/7 activation in LPA2 DKO MEF and EV DKO MEF cells; assay type: cell-based, mouse; details: 1-3 μM, 1 h before Adriamycin
Experimental: as §1, §2
To measure caspase activation the cells were lysed in 50 μl Caspase-Glow® reagent (Caspase 3/7, 8, 9 Promega, Madison, Wis.). The cells were shaken with the caspase reagent for 30 min at room temperature (RT). After 30 min, the luminescence was measured using a BioTek (Winooski, Vt.) plate reader. The mean caspase activity in triplicates/experimental group±SD was calculated. LPA was used as a positive control in all experiments.

[5] = target: T1, LPA2; experiment: Fura-2AM Ca2+ mobilization in LPA2 DKO MEF cells; assay type: cell-based; set-up: expressed in transfected cells; host or cells: mouse embryonic fibroblasts from LPA1/2 double-knockout mice, lentiviral transduction; details: for EC50: DKO MEF; for Emax: MEF
Experimental: (§3) Fluorescence was read every 3.42 seconds for a total of 70 seconds at Ex/Emλ of 340/510 nm and 380/510 nm. Data (relative fluorescence) was then recorded as a mean fluorescence ratio value of the triplicates for each concentration. Graph Pad Prism version 5.0a was then used to fit a non-linear regression curve in a variable slope model (A) to determine the EC50, Emax, and curve fit (R^2)(B).
as §1, §3

T1 sequence (Q9HBW0 whole entry): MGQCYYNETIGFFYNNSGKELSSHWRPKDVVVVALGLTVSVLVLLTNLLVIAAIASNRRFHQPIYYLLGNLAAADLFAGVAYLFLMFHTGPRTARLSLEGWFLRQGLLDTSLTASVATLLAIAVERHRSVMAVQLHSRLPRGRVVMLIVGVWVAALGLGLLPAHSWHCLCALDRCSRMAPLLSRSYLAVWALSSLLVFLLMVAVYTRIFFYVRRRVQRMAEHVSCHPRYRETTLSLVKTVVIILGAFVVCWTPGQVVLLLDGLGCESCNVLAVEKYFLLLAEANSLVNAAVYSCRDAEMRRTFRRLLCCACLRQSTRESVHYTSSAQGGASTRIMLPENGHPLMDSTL

SMILES	mortality by day 20 [1]	EC50 [2] [µM]	protection from DNA fragmentation ([3]; EV DKO MEF cells)	reduction of DNA fragmentation ([3]; LPA2 DKO MEF, 10 μM, 60 min pretreatment, Adriamycin) [%]	protection from Adriamycin induced DNA fragmentation ([3]; LPA2 transduced cells, 3 μM)	caspase-3/7 activation (apoptosis) ([4]; EV DKO MEF)	caspase-3/7 activation (apoptosis) ([4]; LPA2 DKO MEF)	Emax [2] [%]	EC50 [5] [µM]	Emax [5] [%]
O=C(O)c1ccccc1S(=O)(=O)NCCCN1C(=O)c2cccc3cccc(c23)C1=O [Compound 5a, 2-[3-(1,3-Dioxo-1H,3H-benzo[de]isoquinolin-2-yl)propylsulfamoyl]benzoic acid]	significantly reduced mortality	2.2	no protection	~50	selectively protected	not in EV DKO MEF cells	significantly reduced apoptosis	–	–	–
O=C(O)c1ccc(Br)cc1S(=O)(=O)NCCCCN1C(=O)c2cccc3cccc(c23)C1=O [Compound 7b, 4-bromo-2-(N-(4-(1,3-dioxo-1H-benzo[de]isoquinolin-2(3H)-yl)butyl)sulfamoyl) benzoic acid]	ineffective	1	–	–	–	not in EV DKO MEF cells	significantly reduced apoptosis	100	0.4	100
O=C(O)c1ccc2c(c1)S(=O)(=O)N(CCCCN1C(=O)c3cccc4cccc(c34)C1=O)C2=O [Compound 9, 2-(4-(1,3-dioxo-1H-benzo[de]isoquinolin-2(3H)-yl)butyl)-3-oxo-2,3-dihydrobenzo[d]isothiazole-6-carboxylic acid 1,1-dioxide]	–	3.6	–	–	–	–	–	75	–	–
O=C(O)c1ccccc1S(=O)(=O)NCCCCCN1C(=O)c2cccc3cccc(c23)C1=O [Compound 5c]	–	1.2	–	–	–	–	–	100	–	–
COc1ccc(C(=O)O)c(S(=O)(=O)NCCCCN2C(=O)c3cccc4cccc(c34)C2=O)c1 [Compound 7c, 2-(N-(4-(1,3-dioxo-1H-benzo[de]isoquinolin-2(3H)-yl)butyl)sulfamoyl)-4-methoxybenzoic acid]	–	> 10	–	–	–	–	–	–	–	–
O=C(O)c1ccc([N+](=O)[O-])cc1S(=O)(=O)NCCCCN1C(=O)c2cccc3cccc(c23)C1=O [Compound 7a, 2-(N-(4-(1,3-dioxo-1H-benzo[de]isoquinolin-2(3H)-yl)butyl)sulfamoyl)-4-nitrobenzoic acid]	significantly reduced mortality	> 10	–	–	–	–	–	–	> 10	–
O=C(O)c1ccccc1S(=O)(=O)NCCCCN1C(=O)c2cccc3cccc(c23)C1=O [Compound 5b, 2-[4-(1,3-Dioxo-1H,3H-benzo[de]isoquinolin-2-yl)butylsulfamoyl]benzoic acid]	–	0.5	–	–	–	–	–	100	0.5	100
